# Assay results from patent US11672757B2, “Hot melt extrusion for pharmaceutical vaginal film products” (UNIVERSITY OF PITTSBURGH-OF THE COMMONWEALTH SYSTEM OF …, priority 2017, dated 2023).
# How the values were obtained:
# [1] = system: TZM-bl cells; type: cell-based
# Description: A DPV film was dissolved in 2 mL of saline and ten-fold serial dilutions were made. The DPV drug substance stock solution (1000 nM) was mixed in DMSO and serially diluted in DMEM with 10% BSA supplemented with antibiotics, which is the medium used in the TZM-bl assay. All dilution samples were added in triplicates to the TZM-bl cells that were plated. […] For cellular toxicity evaluation, similar set up of the experiment was conducted. Except that for toxicity study, the cells were not exposed to the virus. In this study the cells were exposed to CellTiter-Glo, and luminescence signal was measured. Cellular viability was determined based on the deviation from the cell-only control (Nixon, B., et al., Griffithsin protects mice from genital herpes by preventing cell-to-cell spread. J. Virol., 2013, 87(11):6257-6269).
# [2] = pH 9; cited from earlier work
# [3] = system: wild type and resistant mutant HIV; conditions: cited from earlier work
# [4] = system: human cervical explants; conditions: cited from earlier work
# [5] = system: rabbit model; conditions: in vivo rabbit model; cited from earlier work
# [6] = system: G. vaginalis (ATCC 14018); assay: Zone of inhibition on HBT plate lawn; type: cell-based, Gardnella vaginalis; conditions: 37° C., 6% CO2, 48 hours
# Description: To test the bioactivity of metronidazole film, Gardnella vaginalis (G. vaginilis) (ATCC 14018) was plated on HBT plates to form a lawn. A metronidazole film was placed in the middle of the plated bacteria and plates were incubated at 37° C. with 6% CO2 for 48 hours. Post incubation, the plates were visually inspected for the formation of a zone of inhibition. Placebo films and metronidazole drug substance were prepared and tested in the same manner as the controls. […] This confirms that G. vaginilis growth is inhibited by the presence of both the metronidazole drug substance alone and within the film. On the other hand, G. vaginilis was not affected by the placebo film.
# To test the bioactivity of bacterial/metronidazole combination film, G. vaginalis (ATCC 14018) was plated on Human Blood Tween Bilayer (HBT) plates to form a lawn. Bacteria/metronidazole film was placed in the middle of the HBT plated bacteria and plates were incubated at 37° C. with 6% CO2 for 48 hours. Post incubation, the plates were visually inspected for the formation of a zone of inhibition and L. jensenii growth. Placebo films, metronidazole drug substance, and bacterial loaded film were prepared and tested in the same manner as the controls. […] Therefore, the desired in vivo antimicrobial and probiotic effects of the combination film were confirmed in vitro. […]
compound,measurement,setting,value
"Cc1cc(C)c(Nc2ccnc(Nc3ccc(C#N)cc3)n2)c(C)c1 [DPV, Dapivirine]",cellular toxicity,[1],no cellular toxicity
same,logP,[2],5.27
same,EC50,[3],0.3 ng/mL
same,EC90,[3],0.9 ng/mL
Griffithsin [GRFT],safety,[4],safe
same,safety,[5],safe
Cc1ncc([N+](=O)[O-])n1CCO [Metronidazole],zone of inhibition,[6],~1.5 cm
